# Measured values reported in publication PMC2788672 (Journal of medicinal chemistry, 2009).
# Entries after “also recorded” stand apart in the source; their conditions may differ. Where two headings read alike, the source gives them in different places.
# Legend:
# P. carinii [1] = assay: In vitro anti-P. carinii ATP detection assay; assay type: cell-based, Pneumocystis carinii; conditions: for IC50: Pneumocystis carinii
# [2] = system: sporogonic development of Plasmodium berghei ANKA in Anopheles stephensi; assay: In vivo transmission-blocking activity; conditions: single i.p. dose to mice
# [3] = system: A549 human adenocarcinoma epithelial lung cells; assay: Cytotoxicity, viability of A549 cells; assay type: cell-based
# [4] = system: chloroquine-resistant P. falciparum strain W2; assay: In vitro blood-schizontocidal activity assay; assay type: cell-based, Plasmodium falciparum; conditions: P. falciparum W2, 48 h incubation
# [5] = system: chloroquine-resistant P. falciparum strain W2; conditions: cited from earlier work; for IC50: read-out: Activity against blood stage forms IC50, ref [28]
# P. carinii [6] = conditions: 72 h, ref [28], cited from earlier work; for IC50: read-out: Anti-P. carinii activity IC50
# [7] = 24 h, read-out: Anti-P. carinii activity IC50, 24 h
# [8] = 48 h, read-out: Anti-P. carinii activity IC50, 48 h
# [9] = 72 h, read-out: Anti-P. carinii activity IC50, 72 h
SMILES,IC50 (P. carinii [1]; [7]) [µg/mL],IC50 (P. carinii [1]; [8]) [µg/mL],IC50 (P. carinii [1]; [9]) [µg/mL],Mean no. of oocysts per mosquito±SEM ([2]; dose 10 µmol/kg),Mean no. of oocysts per mosquito±SEM ([2]; dose 50 µmol/kg),other results
COc1cc(NC(C)CCCN2C(=O)CN(C(=O)[C@H](N)C(C)C)C2(C)C)c2ncccc2c1 (stereo partly shown) [Compound 5c],24.7,9.2,6.2,–,–,–
"CC[C@H](C)[C@@H](N)C(=O)N1CC(=O)N(CCCC(C)Nc2cc(OC)cc3cccnc23)C1(C)C (stereo partly shown) [Compound 5e, 1-isoleucyl-3-(4-(6-methoxyquinolin-8-ylamino)pentyl)-2,2-dimethylimidazolidin-4-one]",12.9,7.5,4.6,4.9 ±0.6,1.5 ±0.5,–
COc1cc(NC(C)CCCN2C(=O)CN(C(=O)CN)C2(C)C)c2ncccc2c1 (stereo not shown) [Compound 5a],18.1,15.5,11.6,–,–,Cytotoxicity (A549 cells) IC50 at 72 h [3]: no toxicity
COc1cc(NC(C)CCCN2C(=O)CN(C(C)=O)C2(C)C)c2ncccc2c1 (stereo not shown) [Compound 6],–,40.5,14.6,–,–,Anti-P. carinii activity (activity scale) (P. carinii [1]; 24 h): Inactive; Activity against blood stage forms IC50 [4]: complete loss of activity; also recorded: devoid of blood-schizontocidal activity
COc1cc(N(C(C)=O)C(C)CCCN2C(=O)CN(C(C)=O)C2(C)C)c2ncccc2c1 (stereo not shown) [Compound 7],–,–,–,–,–,Anti-P. carinii activity (activity scale) (P. carinii [1]; 24 h): Inactive; Anti-P. carinii activity (activity scale) (P. carinii [1]; 48 h): Inactive; Anti-P. carinii activity (activity scale) (P. carinii [1]; 72 h): Inactive; Activity against blood stage forms IC50 [4]: devoid of blood-schizontocidal activity
COc1cc(NC(C)CCCN2C(=O)[C@@H](C)N(C(=O)CN)C2(C)C)c2ncccc2c1 (stereo partly shown) [Compound 5h],–,32.2,22.3,3.3 ±1.1,1.8 ±0.5,Cytotoxicity (A549 cells) IC50 at 72 h [3]: no toxicity; Anti-P. carinii activity (activity scale) (P. carinii [1]; 24 h): Inactive
COc1cc(NC(C)CCCN2C(=O)CN(C(=O)[C@H](N)CC(C)C)C2(C)C)c2ncccc2c1 (stereo partly shown) [Compound 5d],14.6,8.4,5.1,–,–,–
COc1cc(NC(C)CCCN2C(=O)CN(C(=O)[C@H](N)Cc3ccccc3)C2(C)C)c2ncccc2c1 (stereo partly shown) [Compound 5g],12.1,9.3,5.1,3.7 ±1.2,2.2 ±0.8,–
COc1cc(NC(C)CCCN2C(=O)[C@@H](C)NC2(C)C)c2ncccc2c1 (stereo partly shown) [Compound 4b],–,–,–,–,–,IC50 [5]: > 50 µM; Activity against blood stage forms IC50 ([5]; ref [28]): complete loss of activity; Anti-P. carinii activity IC50 (P. carinii [6]): 83.7 µg/mL; IC50 (P. carinii [6]): 226 µM
COc1cc(NC(C)CCCN2C(=O)CN(C(=O)[C@@H](C)N)C2(C)C)c2ncccc2c1 (stereo partly shown) [Compound 5b],16.9,8,3.6,–,1.3 ±0.3,–
COc1cc(NC(C)CCCN2C(=O)CNC2(C)C)c2ncccc2c1 (stereo not shown) [Compound 4a],–,–,–,–,–,IC50 [5]: 9.1 µM; Anti-P. carinii activity IC50 (P. carinii [6]): 8.3 µg/mL; IC50 (P. carinii [6]): 23 µM
"COc1cc(NC(C)CCCN)c2ncccc2c1 (stereo not shown) [Compound 1, primaquine, reference compound]",–,–,–,3.5 ±1.2,0.2 ±0.2,"IC50 (P. carinii [1]; 24 h, read-out: Anti-P. carinii activity IC50): 4.7 µg/mL; IC50 (P. carinii [1]; 48 h, read-out: Anti-P. carinii activity IC50): 2.2 µg/mL; IC50 (P. carinii [1]; 72 h, read-out: Anti-P. carinii activity IC50): 0.9 µg/mL"
COc1cc(NC(C)CCCN2C(=O)CN(C(=O)[C@H](N)CCSC)C2(C)C)c2ncccc2c1 (stereo partly shown) [Compound 5f],11.6,6.4,3.4,1.2 ±0.4,3.8 ±1.4,–
